Assay results from US20240217966A1, “PHARMACEUTICAL COMPOSITION CONTAINING GLP-1 RECEPTOR AGONIST HAVING FUSED RING” (Shionogi & Co., Ltd., priority 2021, published 2024).
pEC50: −log10 of the molar value. Read-outs that look alike come from different tables or passages of the source.

Target: T1, Human GLP-1 receptor (Homo sapiens, UniProt P43220)
T1 construct: expressed in transfected cells
Assay: Measurement of GLP-1 receptor agonist activity (cAMP assay)
Assay type: cell-based
Method: Test Example 1: (Measurement of GLP-1 Receptor Agonist Activity)
Human GLP-1 receptor stably expressing cells (hGLP-1R/CHO-K1 cells) are cultured in an α-MEM medium (Sigma) containing 10% FBS (Hyclone), 2% GlutaMAX (Gibco), 1% G418 (Nacalai Tesque), and 1% Penicillin-Streptomycin Mixed Solution (Sigma) at 37° C. under 5% CO2 conditions, and recovered by treating a 10 fold diluted 5.0 g/l-trypsin/5.3 mmol/l-EDTA solution (Nacalai Tesque) and cryopreserved.
A DMSO solution containing the compound of the present invention or human GLP-1 (7-36) (Phoenix Pharmaceuticals) is dispensed into a 384-well microplate (Greiner) at 62.5 nL/well, and in addition, 400 μM Forskolin (Nacalai Tesque) is dispensed therein at 7.5 nL/well. Subsequently, the frozen GLP-1 R/CHO-K1 cells are thawed in a thermostatic bath at 37° C., suspended in HBSS buffer (GIBCO) containing 0.1% BSA (Sigma), 20 mM HEPES (GIBCO), 0.1 mM IBMX (Sigma), and 0.2 mM RO20-1724 (Calbiochem) at 2×10^4 cells/mL, and the cell suspension is added at 6 μL/well. The solution was incubated at 37° C. for 1 hour and intracellular cAMP concentration is measured using cAMP Gs dynamic kit (Cisbio) according to the protocol attached to the product. Specifically, cAMP-d2 and Anti-cAMP-Cryptate are each added in an amount of 3 μL/well, the mixture is incubated at room temperature for 1 hour, and time-resolved fluorescence is measured using PHERAstar (BMG Labtech).
The dilution concentration or the dilution solvent are changed as necessary.
The compounds of the present invention were tested essentially as described above.

[1] = CHO-K1, maximum effect, cAMP increase in GLP-1 R/CHO-K1 cells, 2 nM human GLP-1 (7-36) = 100%, DMSO only = 0%, read-out: Emax
[2] = cAMP increase in GLP-1 R/CHO-K1 cells, 2 nM human GLP-1 (7-36) = 100%, DMSO only = 0%
[3] = CHO-K1, hGLP-1R/CHO-K1 cells, cAMP, 100% = human GLP-1 (7-36) at 2 nM, 0% = DMSO only, read-out: Emax(%)
[4] = hGLP-1R/CHO-K1 cells, cAMP increase, 37° C. 1 hour

T1 sequence (P43220 24-463): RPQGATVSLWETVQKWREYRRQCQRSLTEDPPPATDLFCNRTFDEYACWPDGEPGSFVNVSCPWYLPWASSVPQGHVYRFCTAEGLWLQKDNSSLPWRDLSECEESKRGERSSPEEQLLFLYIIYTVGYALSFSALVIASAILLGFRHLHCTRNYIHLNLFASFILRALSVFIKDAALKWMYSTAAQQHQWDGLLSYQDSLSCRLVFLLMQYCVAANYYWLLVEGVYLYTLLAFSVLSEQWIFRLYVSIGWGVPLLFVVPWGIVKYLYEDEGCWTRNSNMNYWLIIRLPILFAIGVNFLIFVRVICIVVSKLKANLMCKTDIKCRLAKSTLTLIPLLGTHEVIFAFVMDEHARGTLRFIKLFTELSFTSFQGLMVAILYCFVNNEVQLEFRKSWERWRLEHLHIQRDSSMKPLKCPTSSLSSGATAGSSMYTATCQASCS

Row | SMILES | Emax [1] [%] | pEC50 [2] | Emax [3] [%] | pEC50 [4]
1 | O=C(O)c1ccc2nc(CN3CCc4cc(C(F)(F)F)c(OCc5ccc(Cl)cc5F)nc4C3)n(C[C@@H]3CCO3)c2n1 [Compound I-306] | 98.7 | 9.06 |  | 
2 | C[C@H]1c2nc(OCc3ccc(C4CC4)cc3)c(C(F)(F)F)cc2CCN1Cc1nc2ccc(C(=O)O)cc2n1C[C@@H]1CCO1 [Compound I-251] | 120 | 9.09 |  | 
3 | Cc1ccc(COc2cc3c(cc2Cl)CCN(Cc2nc4c(F)cc(C(=O)O)cc4n2C[C@@H]2CCO2)[C@H]3C)cc1 [Compound I-330] | 93 | 8.91 |  | 
4 | CC(c1nc2ccc(C(=O)O)cc2n1C[C@@H]1CCO1)N1CCc2cc(C(F)(F)F)c(OCc3ccc(Cl)cc3F)cc2C1 (mixture of isomers) [Compound I-032] |  |  | 146 | 7.03
5 | O=C(O)c1ccc2nc(CN3CCc4cc(C(F)(F)F)c(OCc5ccc(OC(F)F)c(F)c5)cc4C3)n(C[C@@H]3CCO3)c2c1 [Compound I-143] |  |  | 101 | 7.60
6 | COc1cc(C(=O)O)cc2c1nc(CN1CCc3cc(C(F)(F)F)c(OCc4ccccc4Cl)nc3[C@@H]1C)n2C[C@@H]1CCO1 [Compound I-281] | 120 | 11.13 |  | 
7 | O=C(O)c1cc(OC(F)F)c2nc(CN3CCc4cc(C(F)(F)F)c(OCc5ccc(Cl)cc5F)cc4C3)n(C[C@@H]3CCO3)c2c1 [Compound I-120] |  |  | 103 | 8.61
8 | O=C(O)c1ccc2nc(CN3CCc4cc(C(F)(F)F)c(OCc5ccc(C(F)(F)F)cn5)cc4C3)n(C[C@@H]3CCO3)c2c1 [Compound I-135] |  |  | 91 | 7.56
9 | C[C@H]1c2nc(OCc3ccc(Cl)cc3)c(C(F)(F)F)cc2CCN1Cc1nc2ccc(C(=O)O)nc2n1C[C@@H]1CCO1 [Compound I-348] | 129 | 9.69 |  | 
10 | COc1cc(C(=O)O)cc2c1nc(CN1CCc3cc(C(F)(F)F)c(OCc4c(F)cc(Cl)cc4F)nc3[C@@H]1C)n2C[C@@H]1CCO1 [Compound I-379] | 96 | 10.92 |  | 
11 | C[C@H]1c2cc(OCc3ccc(Cl)cc3)c(C(F)(F)F)cc2CCN1Cc1nc2ccc(C(=O)O)cc2n1C[C@@H]1CCO1 [Compound I-161] |  |  | 110 | 8.89
12 | C[C@H]1c2cc(OCc3ccc(C4CC4)cc3)c(C(F)(F)F)cc2CCN1Cc1nc2ccc(C(=O)O)nc2n1C[C@@H]1CCO1 [Compound I-180] |  |  | 97.3 | 8.05
13 | C[C@H]1c2cc(OCc3ccc(Cl)cc3Cl)c(Cl)cc2CCN1Cc1nc2ccc(C(=O)O)nc2n1C[C@@H]1CCO1 [Compound I-316] | 117 | 8.78 |  | 
14 | C[C@H]1c2cc(OCc3ccc(C#N)cc3)c(C(F)(F)F)cc2CCN1Cc1nc2c(F)cc(C(=O)O)cc2n1C[C@@H]1CCO1 [Compound I-112] |  |  | 114 | 8.96
15 | O=C(O)c1ccc2nc(CN3CCc4cc(C(F)(F)F)c(OCc5ccn(C(F)F)n5)cc4C3)n(C[C@@H]3CCO3)c2c1 [Compound I-150] |  |  | 92 | 7.74
16 | O=C(O)c1ccc2nc(CN3CCc4cc(Br)c(OCc5ccc(Cl)cc5F)cc4C3)n(C[C@@H]3CCO3)c2c1 [Compound I-007] |  |  | 75.7 | 7.70
17 | C[C@H]1c2nc(OCc3c(F)cc(F)cc3F)c(C(F)(F)F)cc2CCN1Cc1nc2c(F)cc(C(=O)O)cc2n1C[C@@H]1CCO1 [Compound I-371] | 122 | 10.31 |  | 
18 | C[C@H]1c2cc(OCc3cc(F)c(Cl)cc3F)c(C(F)(F)F)cc2CCN1Cc1nc2ccc(C(=O)O)c(F)c2n1C[C@@H]1CCO1 [Compound I-200] |  |  | 102 | 9.24
19 | C[C@H]1c2nc(OCc3ccc(F)cc3F)c(C(F)(F)F)cc2CCN1Cc1nc2ccc(C(=O)O)c(F)c2n1C[C@@H]1CCO1 [Compound I-359] | 123 | 10.32 |  | 
20 | O=C(O)c1cc(F)c2nc(CN3CCc4cc(C(F)(F)F)c(OCc5ccc(Cl)cc5Cl)nc4C3)n(C[C@@H]3CCO3)c2c1 [Compound I-384] | 114 | 9.90 |  | 

Continued, values first:

Row | Emax [1] [%] | pEC50 [2] | Emax [3] [%] | pEC50 [4] | SMILES
21 | 91 | 9.38 |  |  | COc1cc(Cl)ccc1COc1cc2c(cc1Cl)CCN(Cc1nc3ccc(C(=O)O)cc3n1C[C@@H]1CCO1)[C@H]2C [Compound I-310]
22 | 118 | 8.78 |  |  | N#Cc1ccc(COc2nc3c(cc2C(F)(F)F)CCN(Cc2nc4ccc(C(=O)O)cc4n2C[C@@H]2CCO2)C3)c(F)c1 [Compound I-271]
23 |  |  | 130 | 7.12 | O=C(O)c1ccc2nc(CN3CCc4cc(C(F)(F)F)c(OCc5ccc(Cl)cc5F)cc4C3)n(CC3(C(F)F)CC3)c2c1 [Compound I-048]
24 | 89.7 | 9.21 |  |  | C[C@H]1c2nc(OCc3ccc(Cl)cc3F)ccc2CCN1Cc1nc2ccc(C(=O)O)cc2n1C[C@@H]1CCO1 [Compound I-395]
25 |  |  | 103 | 8.41 | O=C(O)c1ccc2nc(CN3CCc4cc(C(F)(F)F)c(OCc5ccc(Cl)cc5)cc4C3)n(C[C@@H]3CCO3)c2c1 [Compound I-080]
26 | 124 | 9.01 |  |  | C[C@H]1c2cc(OCc3ccc(Cl)cc3Cl)c(Cl)cc2CCN1Cc1nc2ccc(C(=O)O)cc2n1C[C@@H]1CCO1 [Compound I-311]
27 | 110 | 9.62 |  |  | Cc1ccc(COc2nc3c(cc2C(F)(F)F)CCN(Cc2nc4ccc(C(=O)O)nc4n2C[C@@H]2CCO2)[C@H]3C)cc1 [Compound I-347]
28 | 109 | 9.29 |  |  | O=C(O)c1cc(F)c2nc(CN3CCc4cc(C(F)(F)F)c(OCc5ccc(F)cc5F)nc4C3)n(C[C@@H]3CCO3)c2c1 [Compound I-383]
29 |  |  | 114 | 8.92 | C[C@H]1c2cc(OCc3ccc(C#N)cc3F)c(C(F)(F)F)cc2CCN1Cc1nc2ccc(C(=O)O)c(F)c2n1C[C@@H]1CCO1 [Compound I-219]
30 |  |  | 102 | 7.55 | O=C(O)c1ccc2nc(CN3CCc4cc(C(F)(F)F)c(OCc5ccc(F)c(F)c5F)cc4C3)n(C[C@@H]3CCO3)c2c1 [Compound I-094]
31 |  |  | 111 | 9.13 | Cc1ccc(COc2cc3c(cc2C(F)(F)F)CCN(Cc2nc4ccc(C(=O)O)c(F)c4n2C[C@@H]2CCO2)[C@H]3C)cc1 [Compound I-194]
32 | 106 | 10.82 |  |  | COc1cc(Cl)ccc1COc1nc2c(cc1C(F)(F)F)CCN(Cc1nc3c(OC)cc(C(=O)O)cc3n1C[C@@H]1CCO1)[C@H]2C [Compound I-376]
33 | 115 | 9.77 |  |  | C[C@H]1c2nc(OCc3ccc(F)cc3F)c(C(F)(F)F)cc2CCN1Cc1nc2ccc(C(=O)O)nc2n1C[C@@H]1CCO1 [Compound I-288]
34 |  |  | 104 | 9.51 | C[C@H]1c2cc(OCc3ccc(Cl)cn3)c(C(F)(F)F)cc2CCN1Cc1nc2c(F)cc(C(=O)O)cc2n1C[C@@H]1CCO1 [Compound I-203]
35 | 112 | 9.20 |  |  | COc1cc(C(=O)O)cc2c1nc(CN1CCc3cc(C(F)(F)F)c(OCc4ccc(Cl)cc4)cc3[C@@H]1C)n2C[C@@H]1CCO1 [Compound I-226]
36 | 102 | 9.42 |  |  | COc1cc(C(=O)O)cc2c1nc(CN1CCc3cc(C(F)(F)F)c(OCc4ccc(C#N)cc4F)cc3[C@@H]1C)n2C[C@@H]1CCO1 [Compound I-235]
37 |  |  | 87.3 | 7.10 | O=C(NS(=O)(=O)C1CC1)c1ccc2nc(CN3CCc4cc(C(F)(F)F)c(OCc5ccc(Cl)cc5F)cc4C3)n(C[C@@H]3CCO3)c2c1 [Compound I-055]
